In PMC5590943, “Pharmacological characterisation of S 47445, a novel positive allosteric modulator of AMPA receptors” (PLoS ONE, 2017):
Where “and” joins values, the source holds several entries; their conditions need not be identical. Equal entries are not always repeated.

Tests used:
Rat AMPA receptors = assay: AMPA-evoked currents, Xenopus laevis oocytes injected with rat cortex poly(A+) mRNA (two-electrode voltage clamp); type: cell-based; conditions: geometric mean
Method: (§1) Compounds were tested by bath application.

[1] = system: recombinant human AMPA receptors (GluA1, GluA2 and GluA4 flip and flop variants); assay: Glutamate-evoked currents, oocytes, across GluA recombinants; type: cell-based; conditions: all tested subtypes except GluA4 flop; read-out: EC50 values among most GluA recombinants
Method: as §1

[2] = biological target: T1, GluA1flop/GluA2flip AMPA receptors (Homo sapiens, UniProt P42261+P42262, Q607R); assay: 10 μM glutamate-evoked currents in Xenopus laevis oocytes expressing GluA1flop/GluA2flip (repetitive pulses, GYKI52466); type: cell-based; conditions: for EC50: n = 3
T1 construct: host or cells: Xenopus laevis oocytes
Method: as §1
To test the inhibition, the selective AMPA receptor antagonist GYKI52446 was used from 10 to 1000 μM on the potentiation caused by S 47445 (1 μM).
EC50 were determined either using Matlab (Mathworks inc., Natick, USA) or SAS v9.2 (SAS Institute inc., Cary, USA) softwares. To have a comparative value between the tested drugs when EC50 could not be determined (absence of plateau at high concentrations), the EC2X was determined. EC2X corresponds to the concentrations of the drug responsible for a two-fold increase in the amplitude of the current.

Male Wistar rats = assay: Functional observation battery in rats (Irwin); type: in vivo, rat
Method: Any effects on body temperature were also assessed. Methods were adapted from those described by Irwin, 1968 for detecting behavioural effects in mice.
Male Wistar rats (Depré breeding centre, France), 6 weeks of age (160.0–190.6 g) on the day of randomisation were used. On the day of the test, animals were first scored using the Irwin standardised observation battery, and the body temperature was measured to establish baseline measurements. Groups of rats were then orally treated with S 47445 (50, 200, 500 and 1000 mg/kg) or its vehicle or clonidine, a reference item (3 mg/kg in water). The Irwin scores as well as measurement of body temperature were performed again at 1, 2, 4, 6 and 24 hours after administration of S 47445. Individual observation data were presented as a score attributed to each behavioural sign (intensity and relevance). For observations with absence or presence, the number of animals with the sign was provided per group. For other observations, the median value for each sign per time was presented per group. For body temperature, data were expressed as variations from predose values. […] The treatment effect on body temperature was analysed using one way ANOVA followed by Newman-Keul’s post hoc test. […]

[3] = Solubility noted in co-crystallization experiments with GluA2; type: physicochemical; conditions: prevented co-crystallization with GluA2
mature form of BDNF = system: mature form of BDNF; set-up: method as in PMID 7718245; conditions: aged rats, from the dose of 1 mg/kg; cited from earlier work
α1 (non-selective) = assay: Binding assay, [3H]prazosin
[4] = system: Ca2+ channel (L, verapamil site) phenylalkylamines); assay: Binding assay, [3H](-)D 888
SK^+Ca channel = assay: Binding assay, [125I]apamin
A2A (h) = A2A (h) (Homo sapiens, UniProt P29274); assay: Binding assay, [3H]CGS 21680
[5] = system: about a hundred receptors, enzymes, transporters and channels; assay: CEREP panel, competition binding and enzyme assays
PDE1 = assay: Enzyme and cell-based assay, [3H]cAMP + cAMP (1 μM)
[6] = system: Guanylyl cyclase (stimulated); assay: Enzyme and cell-based assay, GTP (0.1 mM) / SNP (10 μM)
[7] = system: Adenylyl cyclase (stimulated); assay: Enzyme and cell-based assay, ATP (0.5 mM) / forskolin (10 μM)
NMDA receptors = assay: NMDA-evoked currents, oocytes injected with rat cortex poly(A+) mRNA; conditions: n = 3
kainate receptors = assay: Kainate-evoked currents, oocytes injected with rat cortex poly(A+) mRNA; conditions: n = 3

T1 sequence (P42261 19-906): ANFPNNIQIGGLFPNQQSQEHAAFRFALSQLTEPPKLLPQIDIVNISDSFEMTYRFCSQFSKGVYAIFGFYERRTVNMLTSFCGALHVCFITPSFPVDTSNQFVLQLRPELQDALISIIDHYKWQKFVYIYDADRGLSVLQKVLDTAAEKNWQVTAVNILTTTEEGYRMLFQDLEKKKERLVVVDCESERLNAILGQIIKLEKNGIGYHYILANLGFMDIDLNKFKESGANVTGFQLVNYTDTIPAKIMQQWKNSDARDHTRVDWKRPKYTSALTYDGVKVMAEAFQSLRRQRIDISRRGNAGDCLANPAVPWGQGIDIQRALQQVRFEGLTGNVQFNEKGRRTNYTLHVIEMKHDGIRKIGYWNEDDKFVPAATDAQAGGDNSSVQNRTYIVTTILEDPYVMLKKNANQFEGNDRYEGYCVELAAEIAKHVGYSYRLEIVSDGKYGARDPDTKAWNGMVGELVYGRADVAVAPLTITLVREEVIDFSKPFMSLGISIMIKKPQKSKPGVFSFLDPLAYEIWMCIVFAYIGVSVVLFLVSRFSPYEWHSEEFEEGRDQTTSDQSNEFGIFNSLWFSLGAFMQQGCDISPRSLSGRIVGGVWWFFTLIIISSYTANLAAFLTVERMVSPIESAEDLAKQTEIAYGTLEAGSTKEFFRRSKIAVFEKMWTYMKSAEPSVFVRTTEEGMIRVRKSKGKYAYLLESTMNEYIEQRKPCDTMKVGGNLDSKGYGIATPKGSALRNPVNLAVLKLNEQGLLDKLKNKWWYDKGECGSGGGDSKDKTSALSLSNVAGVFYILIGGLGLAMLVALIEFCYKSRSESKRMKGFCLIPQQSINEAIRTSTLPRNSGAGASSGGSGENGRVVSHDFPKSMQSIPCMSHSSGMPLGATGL
T1 sequence (P42262 22-883 isoform P42262-2 Q607R limits assumed): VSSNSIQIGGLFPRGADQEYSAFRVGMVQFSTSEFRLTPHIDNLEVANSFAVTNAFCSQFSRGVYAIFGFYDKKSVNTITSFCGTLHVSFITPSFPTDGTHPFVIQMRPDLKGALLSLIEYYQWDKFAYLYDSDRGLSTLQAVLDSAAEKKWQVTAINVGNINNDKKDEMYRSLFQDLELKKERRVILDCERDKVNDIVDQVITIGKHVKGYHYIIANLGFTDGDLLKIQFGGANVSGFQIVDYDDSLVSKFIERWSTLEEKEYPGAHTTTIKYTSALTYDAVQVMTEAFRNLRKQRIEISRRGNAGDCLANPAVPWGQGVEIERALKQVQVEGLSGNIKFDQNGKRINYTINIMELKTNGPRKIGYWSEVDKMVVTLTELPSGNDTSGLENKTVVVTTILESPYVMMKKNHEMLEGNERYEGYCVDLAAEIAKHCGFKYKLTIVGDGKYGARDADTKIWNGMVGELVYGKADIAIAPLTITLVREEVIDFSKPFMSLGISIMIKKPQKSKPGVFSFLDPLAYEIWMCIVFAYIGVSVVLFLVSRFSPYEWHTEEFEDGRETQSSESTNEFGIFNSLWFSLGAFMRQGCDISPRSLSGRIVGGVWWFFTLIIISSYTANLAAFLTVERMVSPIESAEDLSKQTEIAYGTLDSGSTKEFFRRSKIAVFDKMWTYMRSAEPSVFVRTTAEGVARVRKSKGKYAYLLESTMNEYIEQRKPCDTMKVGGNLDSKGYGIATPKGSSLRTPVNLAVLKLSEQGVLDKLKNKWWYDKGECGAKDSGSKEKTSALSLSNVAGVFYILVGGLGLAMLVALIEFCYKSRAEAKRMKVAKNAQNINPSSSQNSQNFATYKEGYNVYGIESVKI
Chain of A2A (h) (P29274 whole entry): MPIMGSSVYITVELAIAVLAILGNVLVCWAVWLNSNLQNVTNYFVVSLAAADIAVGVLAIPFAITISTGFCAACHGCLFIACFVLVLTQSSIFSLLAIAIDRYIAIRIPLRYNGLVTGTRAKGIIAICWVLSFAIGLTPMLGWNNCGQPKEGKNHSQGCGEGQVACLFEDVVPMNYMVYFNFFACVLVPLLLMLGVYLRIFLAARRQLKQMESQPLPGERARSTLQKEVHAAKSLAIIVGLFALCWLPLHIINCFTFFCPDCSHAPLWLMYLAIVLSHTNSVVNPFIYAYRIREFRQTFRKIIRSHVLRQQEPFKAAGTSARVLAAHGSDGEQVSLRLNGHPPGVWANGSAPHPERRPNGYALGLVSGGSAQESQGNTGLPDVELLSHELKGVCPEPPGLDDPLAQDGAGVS

In the case of `O=C1c2cc3nnn(CCc4cccc(F)c4)c(=O)c3cc2OCN1C1CC1` [S 47445, 8-cyclopropyl-3-[2-(3-fluorophenyl)ethyl]-7,8-dihydro-3H-[1,3]oxazino[6,5-g][1,2,3]benzotriazine-4,9-dione], the EC2X (Rat AMPA receptors; concentration giving a two-fold increase in current amplitude) is reported as 1.53 µM, the EC50 (Rat AMPA receptors; potentiation of 10 μM AMPA-evoked current) is reported as 6.5 µM and 6.54 µM and the EC50 [1] is reported as 2.5 to 5.4 µM. For the same compound, the EC50 ([2]; EC50 of potentiation in absence of GYKI52466, 10 μM glutamate) was 3.23 ± 0.5 µM, the EC50 ([2]; EC50 of potentiation in presence of 100μM of GYKI52466, 10 μM glutamate) was 1.99 ± 0.3 µM and the “Effect on glutamate-evoked currents with repetitive glutamate pulses” value ([2]; S 47445 0.1 and 0.3 μM, 10 μM glutamate 20 s, 1/min) was “progressive potentiation of the glutamate-evoked currents from the second pulse of glutamate”. The “Body temperature and behavior” value (Male Wistar rats; 50, 200, 500 and 1000 mg/kg oral acute) was “no significant effect”, the Spontaneous epileptic seizures (Male Wistar rats; up to 1000 mg/kg p.o.) was “No occurrence” and the Solubility [3] was “poor solubility”. The “Neurotrophic effect on BDNF proteins” value (mature form of BDNF) was “inducing mature form of BDNF proteins”, the “% Inhibition of control specific binding” value (α1 (non-selective); S 47445 1.0E-05 M) was 1% and the “% Inhibition of control specific binding” value (α1 (non-selective); S 47445 1.0E-07 M) was -5%. The “% Inhibition of control specific binding” value ([4]; S 47445 1.0E-05 M) was -1%, the “% Inhibition of control specific binding” value ([4]; S 47445 1.0E-07 M) was 4% and the “% Inhibition of control specific binding” value (SK^+Ca channel; S 47445 1.0E-05 M) was -10%. The “% Inhibition of control specific binding” value (SK^+Ca channel; S 47445 1.0E-07 M) was 13%, the “% Inhibition of control specific binding” value (A2A (h); S 47445 1.0E-05 M) was 9% and the “% Inhibition of control specific binding” value (A2A (h); S 47445 1.0E-07 M) was -8%. For the same compound, the “Percentage of inhibition of control value” ([5]; 10 μM S 47445, all assays of S1 Table) was “lower than 50%”, the Ki ([5]; read-out: Ki values in all these assays, inferred from <50% inhibition at 10 μM) was greater than 10 µM and the “% Inhibition of control specific binding” value (PDE1; S 47445 1.0E-05 M) was 10%. For the same compound, the “% Inhibition of control specific binding” value (PDE1; S 47445 1.0E-07 M) was 1%, the “% Inhibition of control specific binding” value ([6]; S 47445 1.0E-05 M) was 7% and the “% Inhibition of control specific binding” value ([6]; S 47445 1.0E-07 M) was -14%. The “% Inhibition of control specific binding” value ([7]; S 47445 1.0E-05 M) was -21%, the “% Inhibition of control specific binding” value ([7]; S 47445 1.0E-07 M) was 6% and the “Effect at NMDA-evoked currents” value (NMDA receptors) was “absence of effect”. The “Effect at kainate-evoked currents” value (kainate receptors) was “absence of effect”.
